ChEMBL document CHEMBL4825731, “[11C]CHDI-626, a PET Tracer Candidate for Imaging Mutant Huntingtin Aggregates with Reduced Binding to AD Pathological Proteins” (J Med Chem, 2021)

Columns and labels:
[1] = Displacement of [3]10-methoxy-N-(pyridin-3-yl-7-thia-2,5-diazatricyclo(6.4.0.0 2.6)-dodeca-1(12),3,5,8,10-pentaene-4-carboxamide from polyglutamine Q46 aggregate (unknown origin) by radio ligand binding assay; set-up: species or system Homo sapiens
MDR1 = experiment: Efflux ratio of apparent permeability in MDCK cells expressing human MDR1; assay type: ADME, cell-based, Canis lupus familiaris; settings: dog
BCRP = experiment: Efflux ratio of apparent permeability in MDCK cells expressing human BCRP; assay type: ADME, cell-based, Canis lupus familiaris; settings: dog
[2] = Fraction unbound in mouse brain homogenate at 5 uM incubated for 6 hrs shaking at 250 rpm by LC-MS/MS analysis; assay type: ADME, tissue-based
[3] = target: Amyloid-beta precursor protein (Homo sapiens) (UniProt P05067); experiment: Displacement of [3]10-methoxy-N-(pyridin-3-yl-7-thia-2,5-diazatricyclo(6.4.0.0 2.6)-dodeca-1(12),3,5,8,10-pentaene-4-carboxamide from human Amyloid beta plaques using AD postmortem patient brain homogenates at 1 uM incubated for 2 hr by radio ligand binding assay relative to control; assay type: tissue-based
[4] = Cmax in C57BL/6 mouse brain at 0.05 mg/kg, iv; assay type: ADME, organism-based; set-up: route intravenous, dose 0.05 mg/kg
[5] = AUC (5 to 60 min) in C57BL/6 mouse brain at 0.05 mg/kg, iv; assay type: ADME, organism-based; set-up: dose 0.05 mg/kg
[6] = Stability in mouse plasma assessed as half life; assay type: ADME, cell-free
[7] = Fraction unbound in brain concentration ratio in C57BL/6 mouse at 0.05 mg/kg, iv; assay type: ADME, organism-based
[8] = Stability in human plasma assessed as half life; assay type: ADME, cell-free
[9] = Half life in cynomolgus monkey liver microsomes; assay type: ADME, Macaca fascicularis, Microsome
[10] = AUC in Rhesus macaque brain to plasma ratio treated bolus injected into sural vein for 5 secs measured 30 to 120 mins by PET analysis; assay type: ADME, organism-based, Macaca mulatta; settings: rhesus monkey, iv, time 30-120 min
[11] = Cmax in Cynomolgus macaque brain treated bolus injected into sural vein for 5 secs measured 30 to 120 mins by PET analysis; assay type: ADME, organism-based, Macaca fascicularis; set-up: time upper 120 min, time lower 30 min; settings: cynomolgus monkey, in vivo, iv
[12] = Fraction unbound in plasma concentration ratio in C57BL/6 mouse at 0.05 mg/kg, iv; assay type: ADME, organism-based
[13] = Apparent permeability in MDCK cells; assay type: ADME, cell-based, Canis lupus familiaris; settings: dog
[14] = AUC in Cynomolgus macaque brain to plasma ratio treated bolus injected into sural vein for 5 secs measured 30 to 120 mins by PET analysis; assay type: ADME, organism-based, Macaca fascicularis; settings: cynomolgus monkey, iv, time 30-120 min
[15] = Half life in human liver microsomes; assay type: ADME, Microsome
[16] = Half life in mouse liver microsomes; assay type: ADME, Microsome
[17] = Tmax in Cynomolgus macaque brain treated bolus injected into sural vein for 5 secs by PET analysis; assay type: ADME, organism-based, Macaca fascicularis; settings: cynomolgus monkey, in vivo, iv, 5 s; time 5 sec
[18] = Cmax in Rhesus macaque brain treated bolus injected into sural vein for 5 secs measured 30 to 120 mins by PET analysis; assay type: ADME, organism-based, Macaca mulatta; set-up: time upper 120 min, time lower 30 min; settings: rhesus monkey, in vivo, iv
[19] = Tmax in Rhesus macaque brain treated bolus injected into sural vein for 5 secs measured 30 to 120 mins by PET analysis; assay type: ADME, organism-based, Macaca mulatta; settings: rhesus monkey, in vivo, iv; time 30-120 min
[20] = Unbound brain-to-plasma concentration ratio in C57BL/6 mouse at 0.05 mg/kg, iv; assay type: ADME, organism-based; settings: brain and plasma, read-out: K(p,uu,brain)
[21] = Drug metabolism in C57BL/6 mouse plasma assessed as oxidative metabolite M2a at 0.05 mg/kg, iv; assay type: ADME, organism-based; settings: in vivo
[22] = Drug metabolism in C57BL/6 mouse brain assessed as oxidative metabolite M2a at 0.05 mg/kg, iv; assay type: ADME, organism-based; settings: in vivo

Amyloid-beta precursor protein (Homo sapiens), sequence (P05067 whole entry): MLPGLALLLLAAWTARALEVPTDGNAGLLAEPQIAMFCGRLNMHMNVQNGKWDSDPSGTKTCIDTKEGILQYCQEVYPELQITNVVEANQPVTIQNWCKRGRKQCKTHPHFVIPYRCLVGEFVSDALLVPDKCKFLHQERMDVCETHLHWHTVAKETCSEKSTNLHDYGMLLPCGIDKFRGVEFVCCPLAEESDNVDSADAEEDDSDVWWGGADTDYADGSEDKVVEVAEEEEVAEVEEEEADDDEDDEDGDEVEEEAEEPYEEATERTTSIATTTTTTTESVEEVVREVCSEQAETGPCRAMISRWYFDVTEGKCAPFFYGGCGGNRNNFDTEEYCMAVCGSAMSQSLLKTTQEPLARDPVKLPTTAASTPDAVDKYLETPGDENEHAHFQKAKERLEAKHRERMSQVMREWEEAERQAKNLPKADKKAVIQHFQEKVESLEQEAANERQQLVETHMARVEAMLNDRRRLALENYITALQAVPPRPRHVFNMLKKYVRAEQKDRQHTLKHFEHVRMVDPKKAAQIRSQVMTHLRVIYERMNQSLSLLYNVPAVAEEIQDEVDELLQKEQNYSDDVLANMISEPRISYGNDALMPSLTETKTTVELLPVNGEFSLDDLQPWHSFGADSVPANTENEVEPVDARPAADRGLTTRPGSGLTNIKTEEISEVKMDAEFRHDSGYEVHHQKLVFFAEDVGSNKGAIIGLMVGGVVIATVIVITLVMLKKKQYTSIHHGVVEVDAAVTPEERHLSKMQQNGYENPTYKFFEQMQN

| SMILES | IC50 ([1]; read-out: IC50) [nM] | fraction unbound at 6 h, 5 µM [2] | Activity [3] [%] | also measured |
| --- | --- | --- | --- | --- |
| COc1ccc(COc2ccn3c(n2)nc2ccccc23)nc1 | 48 | – | – | efflux ratio (MDR1): 0.5; efflux ratio (BCRP): 1.3 |
| Cn1nc(NC(=O)c2ccn3c(n2)nc2ccccc23)ccc1=O | 16 | 0.37 | 12 | – |
| O=C(Nc1ccccn1)c1ccn2c(n1)nc1ccccc12 | 8.4 | 0.29 | 24 | – |
| O=C(Nc1ccc(=O)[nH]c1)c1ccn2c(n1)nc1ccccc12 | 45 | 0.64 | – | – |
| COc1ccc(NC(=O)c2ccc3c(c2)nc2ncccn23)cn1 | 69 | 0.38 | – | efflux ratio (MDR1): 0.6; efflux ratio (BCRP): 25 |
| COc1ccc2c(c1)nc1nc(C(=O)Nc3ccncn3)ccn12 | 9.2 | 0.23 | 30 | – |
| COc1ccc2c(c1)nc1nc(C(=O)Nc3cccnc3)ccn12 | 10 | 0.15 | 17 | – |
| COc1ccc2c(c1)nc1nc(C(=O)NC3CC3)ccn12 | 351 | 0.24 | – | – |
| FCCC1CCN(c2ccn3c(n2)nc2ccccc23)CC1 | > 333 | 0.12 | 34 | – |
| COc1ccc2c(c1)nc1nc(C(=O)Nc3cnc(C)c(C)c3)ccn12 | – | – | – | Fu ([2]; 6 h, 5 µM): Nd(Insoluble); IC50 [1]: Nd(Insoluble) |
| Cn1cc(NC(=O)c2ccn3c(n2)nc2ccccc23)ccc1=O | 26 | 0.46 | – | – |
| COc1ccc2c(c1)nc1nc(C(=O)Nc3ccccn3)ccn12 | 6.8 | 0.18 | 41 | – |
| COc1ccc2c(c1)nc1nc(C(=O)N3CC(N4CCOCC4)C3)ccn12 | 401 | – | – | – |
| COc1ccc(COc2ccc3oc(-c4ccc(=O)n(C)n4)nc3c2)nc1 | – | – | – | Cmax [4]: 124 nM; AUC(0-t) [5]: 65 nM·h |
| COc1ccc(NC(=O)c2ccnc(Nc3ccncc3)n2)cn1 | 5.3 | 0.02 | – | – |
| COc1ccc2c(c1)nc1nc(C(=O)NC3CCCc4cccnc43)ccn12 (configuration not stated) | 48 | 0.17 | 8 | – |
| COc1ccc(COc2ccn3c(n2)nc2ccccc23)cn1 | 54 | 0.08 | – | efflux ratio (MDR1): 0.5; efflux ratio (BCRP): 0.5 |
| Cn1cc(NC(=O)c2ccn3c(n2)nc2ccccc23)cnc1=O | 302 | 0.7 | – | – |
| CNc1ccc(-c2cn3c(n2)sc2cc(OCCF)ccc23)cc1 | 5.7 | – | 130 | – |
| CN(C(=O)c1ccn2c(n1)nc1ccccc12)c1ccc(=O)[nH]c1 | > 1000 | 0.51 | – | – |
| O=C(Nc1cccnc1)c1ccn2c(n1)nc1ccccc12 | 39 | 0.21 | -12 | – |
| COc1cc(NC(=O)c2ccn3c(n2)nc2ccccc23)cnc1OC | 5.8 | 0.1 | 21 | – |
| COc1ccc2c(c1)nc1nc(C(=O)Nc3cccnn3)ccn12 | 17 | 0.54 | – | – |
| COc1ccc2c(c1)nc1nc(C(=O)Nc3ccc(=O)n(C)n3)ccn12 | 12 | 0.25 | – | – |
| C#CCCCNC(=O)c1ccn2c(n1)nc1cc(OC)ccc12 | 72 | 0.22 | – | – |

More lines, in order of falling IC50 ([1]; read-out: IC50), values ahead:

| IC50 ([1]; read-out: IC50) [nM] | fraction unbound at 6 h, 5 µM [2] | Activity [3] [%] | SMILES | also measured |
| --- | --- | --- | --- | --- |
| 4.3 | 0.03 | 100 | COc1ccc2c(c1)sc1nc(C(=O)Nc3cccnc3)cn12 | – |
| 4.1 | 0.32 | 0 | COc1ccc2c(c1)nc1nc(C(=O)N3Cc4cccnc4C3)ccn12 | – |
| 3.6 | 0.11 | – | [11CH3]Oc1ccc(NC(=O)c2ccn3c(n2)nc2ccccc23)cn1 | half-life [6]: 100 min; fraction unbound [7]: 0.11; half-life [8]: 127 min; half-life [9]: 1 min; Ratio AUC [10]: 0.9; Cmax [11]: 3.5 %ID; fraction unbound [12]: 0.09; Papp [13]: 9.4 ×10⁻⁶ cm/s; Ratio AUC [14]: 0.3; half-life [15]: 8 min; Cmax [4]: 21 nM; half-life [16]: 8 min; Tmax [17]: 0.8 min; efflux ratio (MDR1): 0.5; Cmax [18]: 3.2 %ID; Tmax [19]: 0.8 min; efflux ratio (BCRP): 0.9; Kp uu [20]: 0.9; AUC(0-t) [5]: 3 nM·h |
| 3.5 | 0.21 | 25 | COc1cncc(NC(=O)c2ccn3c(n2)nc2ccccc23)c1 | half-life [6]: 215 min; Drug metabolism [21]: Metabolite_Detected; fraction unbound [7]: 0.21; half-life [8]: > 480 min; half-life [9]: 4 min; fraction unbound [12]: 0.07; Papp [13]: 12.5 ×10⁻⁶ cm/s; half-life [15]: 12 min; Drug metabolism [22]: Metabolite_Detected; Cmax [4]: 17 nM; half-life [16]: 4 min; efflux ratio (MDR1): 0.8; efflux ratio (BCRP): 2.7; Kp uu [20]: 1; AUC(0-t) [5]: 2 nM·h |
| 3.3 | 0.06 | – | COc1ccc(NC(=O)c2ccc3c(n2)oc2ccncc23)cn1 | – |
| 2.8 | 0.03 | -29 | COc1ncc(NC(=O)c2ccn3c(n2)nc2ccccc23)cc1C | – |
| 2.8 | 0.03 | – | COc1ccc(NC(=O)c2ccc3c4cnccc4n(C(=O)OC(C)(C)C)c3n2)cn1 | efflux ratio (MDR1): 2; efflux ratio (BCRP): > 7.3 |
| 2.3 | 0.1 | 13 | COc1ccc2c(c1)nc1nc(C(=O)Nc3ccc(OC)nc3)ccn12 | – |
| 2.1 | 0.15 | 5 | COc1cncc(NC(=O)c2ccn3c(n2)nc2cc(OC)ccc23)c1 | – |
| 1.6 | 0.16 | – | COc1ccc(C(=O)Nc2ccn3c(n2)nc2ccccc23)cn1 | efflux ratio (MDR1): 0.5; efflux ratio (BCRP): 2.1 |
| 1.4 | 0.02 | 21 | Cc1cc(NC(=O)c2ccn3c(n2)nc2ccccc23)cnc1C | – |
| 1.3 | 0.04 | – | COc1ccc(NC(=O)c2ccc3c4cnccc4n(C)c3n2)cn1 | – |
